Results on 34 compounds are retold here after patent publication EP4737448A1, “SARM1 ENZYME ACTIVITY INHIBITOR AND USE THEREOF” (Artivila (ShenZhen) Innovation Center, Ltd., priority 2023, dated 2025).

The experiment concerns the target T1, SARM1 (Homo sapiens, UniProt Q6SZW1).
T1 construct: the inventor produces full-length SARM1 for NADase activity assays and for screening; His (C); made in house; host or cells: HEK293 cells (transient transfection; digitonin lysate supernatant, not purified further)
T1 sequence (Q6SZW1 28-724): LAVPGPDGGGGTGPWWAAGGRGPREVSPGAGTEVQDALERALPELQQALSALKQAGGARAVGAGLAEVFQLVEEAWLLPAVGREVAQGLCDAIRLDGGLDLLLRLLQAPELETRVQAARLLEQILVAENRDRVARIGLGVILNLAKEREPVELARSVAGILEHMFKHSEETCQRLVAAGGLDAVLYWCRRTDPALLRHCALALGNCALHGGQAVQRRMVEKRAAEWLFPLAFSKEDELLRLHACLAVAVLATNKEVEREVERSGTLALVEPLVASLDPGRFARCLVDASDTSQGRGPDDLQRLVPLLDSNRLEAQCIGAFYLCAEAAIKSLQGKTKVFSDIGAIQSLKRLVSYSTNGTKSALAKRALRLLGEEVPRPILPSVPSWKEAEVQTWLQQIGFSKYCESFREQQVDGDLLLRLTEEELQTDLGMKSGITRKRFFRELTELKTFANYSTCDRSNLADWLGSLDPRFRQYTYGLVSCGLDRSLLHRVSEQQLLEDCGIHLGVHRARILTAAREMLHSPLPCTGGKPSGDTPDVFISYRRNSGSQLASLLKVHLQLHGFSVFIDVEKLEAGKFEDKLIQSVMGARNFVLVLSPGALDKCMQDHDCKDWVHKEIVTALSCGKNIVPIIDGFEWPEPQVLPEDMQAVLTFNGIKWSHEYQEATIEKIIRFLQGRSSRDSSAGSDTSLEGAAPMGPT
The experiment can be described thus: In vitro biochemical assay for inhibiting SARM1 enzymatic activity (PC6 fluorescence, NAD substrate, NMN activator). As to conditions: 0.05 µg/mL SARM1, 50 µM NAD, 50 µM PC6, 50 µM NMN, 10 min pre-incubation, 30 min at room temperature. Here is the method: Compounds to be tested were stocked at 200 µM or 10 mM (in DMSO), and further diluted to the desired compound concentration for the in vitro SARM1 enzyme assay and inhibitor screening.
The gene sequence encoding SARM1 protein was amplified by PCR and the PCR amplification product was constructed into the pcDNA3.1-HIS-C plasmid. This construction was completed by YouBio Biological Technology (Hunan, China).
HEK293 cells were cultured in DMEM in a 10 cm dish. The next day, cells were transfected with 15 µg of the pcDNA3.1-SARM1-HIS-C expression plasmid.
Cells were harvested 48 hours after the transfection. The SARM1 protein expressed in cells was obtained through cell lysis by digitonin, which was used for in vitro activity assay. The specific process was as follows:
Cells were digested and detached from the dish using trypsin-EDTA, centrifuged at 1000 rpm for 5 minutes, washed once with PBS, then resuspended in PBS containing 100 µM digitonin at 0.6 mL PBS for the cells in 10 cm dish and lysed for 5 min. The cells were added with trypan blue and observed under a microscope. More than 90% of the cells were confirmed to be lysed. The cells were centrifuged at 5000 rpm for 10 min, and the supernatant containing SARM1 protein was collected.
The compound was added into a solution of 50 mM Tris-HCl (pH 7.5) containing 0.05 µg/mL SARM1 to achieve a concentration of 200 µM, and then serially diluted 6 times, where each dilution was carried out by taking half of the previous solution and adding an equal volume of 50 mM Tris-HCl (pH 7.5) containing 0.05 µg/mL SARM1, yielding a set of final concentrations of the compound of either 200, 100, 50, 25, 12.5, 6.25 and 3.125 µM, or 200, 50, 12.5, 3.125, 0.78, 0.195 and 0.049 µM. No inhibitor was added in the control group. All mixtures were incubated at room temperature for 10 min.
Subsequently, 50 µM NAD, 50 µM PC6 as substrate and 50 µM NMN as activator were added to the SARM1 protein incubated with the inhibitor and reacted for 30 min at room temperature. Wherein, the aforementioned concentrations of each component represent their respective final concentrations in the reaction system
During the reaction, the fluorescence spectrum dynamics of PC6 was detected by a microplate reader, with excitation and emission wavelengths set at 390 nm and 520 nm, respectively. The activity of the protein was expressed as the reaction rate and half maximal inhibitory concentration was calculated. The higher the reaction rate, the stronger the protein activity, and the lower the inhibitory efficiency of the compound.
Dose-response curves for inhibition of SARM1 enzymatic activity for NAD by the compounds were plotted using the above method.
As a reminder, the IC50 is the concentration that gives 50% inhibition. `O=C1C(Cc2ccc(Cl)cc2)CCN1c1cnc(-c2ccncc2)nc1` (stereo not shown) [Compound 23, 3-(4-chlorobenzyl)-1-(2-(pyridin-4-yl)pyrimidin-5-yl)pyrrolidin-2-one] gave an IC50 of 10 to 30 µM. As to `O=C1C(Cc2ccc(C(F)(F)F)cc2)CCN1c1ccc(-c2ccncc2)cc1` (stereo not shown) [Compound 18, 3-(4-trifluoromethylbenzyl)-1-(4-(pyridin-4-yl)phenyl)pyrrolidin-2-one], the IC50 is 1 to 10 µM.

Regarding `S=C1C(Cc2ccc(Cl)cc2)CCN1c1ccc(-c2ccncc2)cc1` (stereo not shown) [Compound 12], the IC50 is < 1 µM. With `O=C1N(Cc2ccc(Cl)cc2)CCN1c1ccc(-c2ccncc2)cc1` [Compound 13, 1-(4-chlorobenzyl)-3-(4-(pyridin-4-yl)phenyl)imidazolin-2-one], the IC50 was < 1 µM. The compound `O=C1C(Cc2ccc([N+](=O)[O-])cc2)CCN1c1ccc(-c2ccncc2)cc1` (stereo not shown) [Compound 32, 3-(4-nitrobenzyl)-1-(4-(pyridin-4-yl)phenyl)pyrrolidin-2-one] showed an IC50 of 10 to 30 µM. Turning to `O=C1C(Cc2ccc(Cl)cc2)CCN1c1ccc(-c2ccncc2F)cc1` (stereo not shown) [Compound 35, 3-(4-chlorobenzyl)-1-(4-(3-fluoropyridin-4-yl)phenyl)pyrrolidin-2-one], the IC50 was < 1 µM. `O=C1C(Cc2ccc(Cl)c(F)c2)CCN1c1ccc(-c2ccncc2)cc1` (stereo not shown) [Compound 16, 3-(4-chloro-3-fluorobenzyl)-1-(4-(pyridin-4-yl)phenyl)pyrrolidin-2-one] had an IC50 of 1 to 10 µM. As for `C=C(Cc1ccc(Cl)cc1)C(=O)Nc1ccc(-c2ccncc2)cc1` [Compound 5], the IC50 is < 1 µM. `C#Cc1ccc(CC2CCN(c3ccc(-c4ccncc4)cc3)C2=O)cc1` (stereo not shown) [Compound 89, 3-(4-ethynylbenzyl)-1-(4-(pyridin-4-yl)phenyl)pyrrolidin-2-one] registered an IC50 of 10 to 30 µM. As to `Cc1ccc(CC2CCN(c3ccc(-c4ccncc4)nn3)C2=O)cc1` (stereo not shown) [Compound 63], the IC50 was < 1 µM. With `O=C1C(Cc2ccc(F)c(F)c2)=CCN1c1ccc(-c2ccncc2)cc1` [Compound 85, 3-(3,4-difluorobenzyl)-1-(4-(pyridin-4-yl)phenyl)-1,5-dihydro-2H-pyrrolidin-2-one], the IC50 lay within 1 to 10 µM. The figure for `O=C1C(Cc2ccc(Br)cc2)CCN1c1ccc(-c2ccncc2)cc1` (stereo not shown) [Compound 31, 3-(4-bromobenzyl)-1-(4-(pyridin-4-yl)phenyl)pyrrolidin-2-one] is 10 to 30 µM. In turn, `CC(c1ccc(Cl)cc1)C1CCN(c2ccc(-c3ccncc3)cc2)C1=O` (stereo not shown) [Compound 4, 3-(1-(4-chlorophenyl)ethyl)-1-(4-(pyridin-4-yl)phenyl)pyrrolidin-2-one] displayed an IC50 of 10 to 30 µM. With `O=C1C(Cc2ccc(Cl)cc2)CCN1c1ccc(-c2ccncn2)cc1` (stereo not shown) [Compound 9, 3-(4-chlorobenzyl)-1-(4-(pyrimidin-4-yl)phenyl)pyrrolidin-2-one] the figure was 1 to 10 µM. In turn, `O=C1/C(=C/c2ccc(Cl)cc2)CCN1c1ccc(-c2ccncc2)nn1` [Compound 78, (E)-3-(4-chlorobenzylidene)-1-(6-(pyridin-4-yl)pyridazin-3-yl)pyrrolidin-2-one] displayed an IC50 of 10 to 30 µM. Regarding `Cc1cnccc1-c1ccc(N2CCC(Cc3ccc(Cl)cc3)C2=O)nn1` (stereo not shown) [Compound 74, 3-(4-chlorobenzyl)-1-(6-(3-methylpyridin-4-yl)pyridazin-3-yl)pyrrolidin-2-one], the IC50 was < 1 µM. Regarding `N#Cc1ccc(CC2CCN(c3ccc(-c4ccncc4)cc3)C2=O)cc1` (stereo not shown) [Compound 19, 3-(4-cyanobenzyl)-1-(4-(pyridin-4-yl)phenyl)pyrrolidin-2-one], the IC50 lay in the range of 1 to 10 µM.

For the compound `O=C1C(Cc2ccc(Cl)cc2)=CCN1c1ccc(-c2ccncc2)cc1` [Compound 22], the IC50 lay in the range of 1 to 10 µM. The figure for `CN1CCN(Cc2ccc(CC3CCN(c4ccc(-c5ccncc5)cc4)C3=O)cc2)CC1` (stereo not shown) [Compound 88, 3-(4-((4-methylpiperazin-1-yl)methyl)benzyl)-1-(4-(pyridin-4-yl)phenyl)pyrrolidin-2-one] is 10 to 30 µM; for `N#Cc1cnccc1-c1ccc(N2CCC(Cc3ccc(Cl)cc3)C2=O)cc1` (stereo not shown) [Compound 36, 3-(4-chlorobenzyl)-1-(4-(3-cyanopyridin-4-yl)phenyl)pyrrolidin-2-one] it is 10 to 30 µM. The figure for `COC(=O)c1ccc(CC2CCN(c3ccc(-c4ccncc4)cc3)C2=O)cc1` (stereo not shown) [Compound 86, methyl 4-((2-oxo-1-(4-(pyridin-4-yl)phenyl)pyrrolidin-3-yl)methyl)benzoate] is 1 to 10 µM; for `O=C1C(Cc2cc(F)cc(F)c2)CCN1c1ccc(-c2ccncc2)nn1` (stereo not shown) [Compound 68] it is < 1 µM. Compound `O=C1C(Cc2cccc(Cl)c2)CCN1c1ccc(-c2ccncc2)cc1` (stereo not shown) [Compound 26, 3-(3-chlorobenzyl)-1-(4-(pyridin-4-yl)phenyl)pyrrolidin-2-one] registered an IC50 of 10 to 30 µM.

On to `O=C1C(Cc2ccc(/C=C/Cl)cc2)CCN1c1ccc(-c2ccncc2)cc1` (stereo not shown) [Compound 90, (E)-3-(4-(2-chloroethenyl)benzyl)-1-(4-(pyridin-4-yl)phenyl)pyrrolidin-2-one], for which the IC50 fell in the range of 1 to 10 µM. `O=C1C(Cc2ccc(Cl)cc2)CCCN1c1ccc(-c2ccncc2)cc1` (stereo not shown) [Compound 38, 3-(4-chlorobenzyl)-1-(4-(pyridin-4-yl)phenyl)piperidin-2-one] returned a half-maximal inhibitory concentration (IC50) of 1 to 10 µM. With `O=C1C(Oc2ccc(Cl)cc2)CCN1c1ccc(-c2ccncc2)cc1` (stereo not shown) [Compound 2, 3-(4-chlorophenoxy)-1-(4-(pyridin-4-yl)phenyl)pyrrolidin-2-one] the figure was 10 to 30 µM; with `Cc1cnccc1-c1ccc(N2CCC(Cc3ccc(Cl)cc3)C2=O)cc1` (stereo not shown) [Compound 14, 3-(4-chlorobenzyl)-1-(4-(3-methylpyridin-4-yl)phenyl)pyrrolidin-2-one], < 1 µM; with `COc1cc(-c2ccncc2)ccc1N1CCCC(Cc2ccc(Cl)cc2)C1=O` (stereo not shown) [Compound 39, 3-(4-chlorobenzyl)-1-(2-methoxy-4-(pyridin-4-yl)phenyl)piperidin-2-one], 1 to 10 µM.

Compound `O=C1CC(Cc2ccc(Cl)cc2)C(=O)N1c1ccc(-c2ccncc2)cc1` (stereo not shown) [Compound 43, 3-(4-chlorobenzyl)-1-(4-(pyridin-4-yl)phenyl)pyrrolidin-2,5-one] displayed an IC50 of 1 to 10 µM. For the compound “3-(4-chloro-2-fluorobenzyl)-1-(4-(pyridin-4-yl)phenyl)pyrrolidin-2-one [Compound 42]”, the IC50 fell in the range of 1 to 10 µM. On to `NC(=O)c1cnccc1-c1ccc(N2CCC(Cc3ccc(Cl)cc3)C2=O)cc1` (stereo not shown) [Compound 37], for which the IC50 lay within 1 to 10 µM.

`O=C1C(Cc2ccc(Cl)cc2)CCN1c1ccc(-c2ccncc2)cc1Cl` (stereo not shown) [Compound 11, 3-(4-chlorobenzyl)-1-(2-chloro-4-(pyridin-4-yl)phenyl)pyrrolidin-2-one]: the IC50 was in the range of 10 to 30 µM. `O=C(O)c1ccc(CC2CCN(c3ccc(-c4ccncc4)cc3)C2=O)cc1` (stereo not shown) [Compound 87, 4-((2-oxo-1-(4-(pyridin-4-yl)phenyl)pyrrolidin-3-yl)methyl)benzoic acid] showed an IC50 of 10 to 30 µM. With `O=C1C(CCc2ccc(Cl)cc2)CCN1c1ccc(-c2ccncc2)cc1` (stereo not shown) [Compound 27, 3-(4-chlorophenethyl)-1-(4-(pyridin-4-yl)phenyl)pyrrolidin-2-one] the figure was 10 to 30 µM.
